Series [1] is described as follows: in vitro. It counts as cell-based, human. Conditions: human, differentiated hl-60 cells, 300 μmol/L, about 24 hours, PMA-differentiated HL-60 cells, LDH; no-treatment 0%, cell lysis buffer 100%; read-out: cytotoxicity (%) Evaluation compound results. The essentials:
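HL-60 cells differentiated ~72 h with 10 nM PMA, then exposed ~24 h to compound at 300 μmol/L final in RPMI with 2% FBS. LDH release in supernatant gave cytotoxicity % scaled between untreated (0%) and lysis-buffer (100%) groups; triplicate.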

A short description of series [2]: Study for confirmation of conversion to brexpiprazole in a buffer (stability of the evaluation compounds). Format: physicochemical. The settings on record: in buffer, average of duplicate; for Concentration of brexpiprazole formed: 60-minute reaction sample; for Concentration of evaluation compound decreased: decrease in 60-minute vs 0-minute reaction sample. The essentials:
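Compounds (final 1 μmol/L, from 100 μmol/L working solutions) incubated in buffer at 37° C. for 0 or 60 min, in duplicate, after 3 min pre-incubation of the reaction solution. Reactions stopped with acetonitrile/isopropanol (4:1) containing internal standards; compound and formed brexpiprazole quantified against 0.01–1 μmol/L calibration samples.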

Regarding `CCOC(=O)C[C@@H](OP(=O)([O-])OC[N+]1(CCCCOc2ccc3ccc(=O)[nH]c3c2)CCN(c2cccc3sccc23)CC1)C(=O)OCC` [EX 111, (R)-(4-(benzo[b]thiophen-4-yl)-1-(4-((2-oxo-1,2-dihydroquinolin-7-yl)oxy)butyl)piperazin-1-ium-1-yl)methyl (1,4-diethoxy-1,4-dioxobutan-2-yl) phosphate], in series [1], the cytotoxicity at 24 h, 300 µM was determined as 0%. In addition, in series [2], the “Concentration of brexpiprazole formed” value was 0.00 µM and the “Concentration of evaluation compound decreased” value was 0.02 µM.

For `COCCCCOC(=O)OCOP(=O)([O-])OC[N+]1(CCCCOc2ccc3ccc(=O)[nH]c3c2)CCN(c2cccc3sccc23)CC1` [EX 36, (4-(benzo[b]thiophen-4-yl)-1-(4-((2-oxo-1,2-dihydroquinolin-7-yl)oxy)butyl)piperazin-1-ium-1-yl)methyl ((((4-methoxybutoxy)carbonyl)oxy)methyl) phosphate], in series [1], the cytotoxicity at 24 h, 300 µM was -10%. In addition, in series [2], the “Concentration of brexpiprazole formed” value was determined as 0.00 µM and the “Concentration of evaluation compound decreased” value was -0.04 µM.

Consider `O=c1ccc2ccc(OCCCC[N+]3(COP(=O)([O-])OCCN4CCCCC4)CCN(c4cccc5sccc45)CC3)cc2[nH]1` [EX 118, (4-(benzo[b]thiophen-4-yl)-1-(4-((2-oxo-1,2-dihydroquinolin-7-yl)oxy)butyl)piperazin-1-ium-1-yl)methyl (2-(piperidin-1-yl)ethyl) phosphate], for which the cytotoxicity at 24 h, 300 µM in series [1] was -8%. In series [2], the “Concentration of brexpiprazole formed” value came to 0.00 µM and the “Concentration of evaluation compound decreased” value was determined as 0.06 µM.

Consider `C[C@@H]1CN(CCOP(=O)([O-])OC[N+]2(CCCCOc3ccc4ccc(=O)[nH]c4c3)CCN(c3cccc4sccc34)CC2)C[C@H](C)O1` [EX 116, (4-(benzo[b]thiophen-4-yl)-1-(4-((2-oxo-1,2-dihydroquinolin-7-yl)oxy)butyl)piperazin-1-ium-1-yl)methyl (2-((2S,6R)-2,6-dimethylmorpholino)ethyl) phosphate], for which the cytotoxicity at 24 h, 300 µM in series [1] was -9%. In addition, in series [2], the “Concentration of brexpiprazole formed” value came out at 0.00 µM and the “Concentration of evaluation compound decreased” value amounted to 0.09 µM.

As for `CC(C)COC(=O)[C@@H](C)OP(=O)([O-])OC[N+]1(CCCCOc2ccc3ccc(=O)[nH]c3c2)CCN(c2cccc3sccc23)CC1` [EX 107, (R)-(4-(benzo[b]thiophen-4-yl)-1-(4-((2-oxo-1,2-dihydroquinolin-7-yl)oxy)butyl)piperazin-1-ium-1-yl)methyl (1-isobutoxy-1-oxopropan-2-yl) phosphate], the cytotoxicity at 24 h, 300 µM in series [1] is -6%. In series [2], the “Concentration of brexpiprazole formed” value is 0.00 µM and the “Concentration of evaluation compound decreased” value came out at 0.07 µM.

`CCOC(=O)[C@H](C)NP(=O)([O-])OC[N+]1(CCCCOc2ccc3ccc(=O)[nH]c3c2)CCN(c2cccc3sccc23)CC1` [EX 156, (4-(benzo[b]thiophen-4-yl)-1-(4-((2-oxo-1,2-dihydroquinolin-7-yl)oxy)butyl)piperazin-1-ium-1-yl)methyl (S)-(1-ethoxy-1-oxopropan-2-yl)phosphoramidate]: in series [1], the cytotoxicity at 24 h, 300 µM is -9%. In series [2], the “Concentration of brexpiprazole formed” value came to 0.00 µM and the “Concentration of evaluation compound decreased” value came to 0.17 µM.

Consider `O=c1ccc2ccc(OCCCC[N+]3(COP(=O)([O-])O)CCN(c4cccc5sccc45)CC3)cc2[nH]1` [EX 2, (4-(benzo[b]thiophen-4-yl)-1-((4-((2-oxo-1,2-dihydroquinolin-7-yl)oxy)butyl)piperazin-1-ium-1-yl)methyl hydrogen phosphate], for which the cytotoxicity at 24 h, 300 µM in series [1] is -7%. In series [2], the “Concentration of brexpiprazole formed” value stood at 0.00 µM and the “Concentration of evaluation compound decreased” value was 0.00 µM.

Consider `CC1(C)OCC(C(=O)OCOP(=O)([O-])OC[N+]2(CCCCOc3ccc4ccc(=O)[nH]c4c3)CCN(c3cccc4sccc34)CC2)CO1` [EX 67, (4-(benzo[b]thiophen-4-yl)-1-(4-((2-oxo-1,2-dihydroquinolin-7-yl)oxy)butyl)piperazin-1-ium-1-yl)methyl (((2,2-dimethyl-1,3-dioxane-5-carbonyl)oxy)methyl) phosphate], for which the cytotoxicity at 24 h, 300 µM in series [1] turned out to be 1%. In series [2], the “Concentration of brexpiprazole formed” value worked out at 0.00 µM and the “Concentration of evaluation compound decreased” value stood at 0.09 µM.

As to `CC(C)OC(=O)OCOP(=O)([O-])OC[N+]1(CCCCOc2ccc3ccc(=O)[nH]c3c2)CCN(c2cccc3sccc23)CC1` [EX 130, (4-(benzo[b]thiophen-4-yl)-1-(4-((2-oxo-1,2-dihydroquinolin-7-yl)oxy)butyl)piperazin-1-ium-1-yl)methyl (isopropoxycarbonyl)oxy)methyl) phosphate], the cytotoxicity at 24 h, 300 µM in series [1] was found to be 1%. Moreover, in series [2], the “Concentration of brexpiprazole formed” value was 0.00 µM and the “Concentration of evaluation compound decreased” value is -0.02 µM.

As to `O=c1ccc2ccc(OCCCC[N+]3(COP(=O)([O-])OCC4(CO)CC4)CCN(c4cccc5sccc45)CC3)cc2[nH]1` [EX 47, (4-(benzo[b]thiophen-4-yl)-1-(4-((2-oxo-1,2-dihydroquinolin-7-yl)oxy)butyl)piperazin-1-ium-1-yl)methyl ((1-(hydroxymethyl)cyclopropyl)methyl) phosphate], the cytotoxicity at 24 h, 300 µM in series [1] is -5%. Moreover, in series [2], the “Concentration of brexpiprazole formed” value was determined as 0.00 µM and the “Concentration of evaluation compound decreased” value was 0.00 µM.

`O=C(O)CCCCCOC(=O)OCOP(=O)([O-])OC[N+]1(CCCCOc2ccc3ccc(=O)[nH]c3c2)CCN(c2cccc3sccc23)CC1` [EX 145, (4-(benzo[b]thiophen-4-yl)-1-(4-((2-oxo-1,2-dihydroquinolin-7-yl)oxy)butyl)piperazin-1-ium-1-yl)methyl (((((5-carboxypentyl)oxy)carbonyl)oxy)methyl) phosphate]: the cytotoxicity at 24 h, 300 µM in series [1] was -9%. Besides, in series [2], the “Concentration of brexpiprazole formed” value stood at 0.00 µM and the “Concentration of evaluation compound decreased” value worked out at 0.03 µM.

`CC(C)(CC(=O)O)CC(=O)OCOP(=O)([O-])OC[N+]1(CCCCOc2ccc3ccc(=O)[nH]c3c2)CCN(c2cccc3sccc23)CC1` [EX 71]: the cytotoxicity at 24 h, 300 µM in series [1] is -9%. Besides, in series [2], the “Concentration of brexpiprazole formed” value was found to be 0.00 µM and the “Concentration of evaluation compound decreased” value worked out at 0.10 µM.

Take `O=c1ccc2ccc(OCCCC[N+]3(COP(=O)([O-])OCCCCCCCBr)CCN(c4cccc5sccc45)CC3)cc2[nH]1` [EX 64, (4-(benzo[b]thiophen-4-yl)-1-(4-((2-oxo-1,2-dihydroquinolin-7-yl)oxy)butyl)piperazin-1-ium-1-yl)methyl (7-bromoheptyl) phosphate]: the cytotoxicity at 24 h, 300 µM in series [1] amounted to 9%. Moreover, in series [2], the “Concentration of brexpiprazole formed” value amounted to 0.00 µM and the “Concentration of evaluation compound decreased” value stood at 0.03 µM.

For the compound `CCCC(C)(C)C(=O)OCOP(=O)([O-])OC[N+]1(CCCCOc2ccc3ccc(=O)[nH]c3c2)CCN(c2cccc3sccc23)CC1` [EX 123, (4-(benzo[b]thiophen-4-yl)-1-(4-((2-oxo-1.2-dihydroquinolin-7-yl)oxy)butyl)piperazin-1-ium-1-yl)methyl (((2,2-dimethylpentanoyl)oxy)methyl) phosphate], the cytotoxicity at 24 h, 300 µM in series [1] is -8%. In series [2], the “Concentration of brexpiprazole formed” value was 0.00 µM and the “Concentration of evaluation compound decreased” value was -0.11 µM.

`O=C(CCCCCO)OCOP(=O)([O-])OC[N+]1(CCCCOc2ccc3ccc(=O)[nH]c3c2)CCN(c2cccc3sccc23)CC1` [EX 126, (4-(benzo[b]thiophen-4-yl)-1-(4-((2-oxo-1,2-dihydroquinolin-7-yl)oxy)butyl)piperazin-1-ium-1-yl)methyl (6-hydroxyhexanoyl)oxy)methyl) phosphate]: the cytotoxicity at 24 h, 300 µM in series [1] was -7%. Besides, in series [2], the “Concentration of brexpiprazole formed” value amounted to 0.00 µM and the “Concentration of evaluation compound decreased” value was 0.16 µM.

For the compound `COC(=O)[C@H](COP(=O)([O-])OC[N+]1(CCCCOc2ccc3ccc(=O)[nH]c3c2)CCN(c2cccc3sccc23)CC1)NC(=O)OC(C)(C)C` [EX 83, (S)-(4-(benzo[b]thiophen-4-yl)-1-(4-((2-oxo-1,2-dihydroquinolin-7-yl)oxy)butyl)piperazin-1-ium-1-yl)methyl (2-(tert-butoxycarbonyl)amino)-3-methoxy-3-oxopropyl) phosphate], the cytotoxicity at 24 h, 300 µM in series [1] is -5%. In series [2], the “Concentration of brexpiprazole formed” value worked out at 0.00 µM and the “Concentration of evaluation compound decreased” value came to 0.07 µM.

Regarding `CC(C)OC(=O)[C@@H](C)OP(=O)([O-])OC[N+]1(CCCCOc2ccc3ccc(=O)[nH]c3c2)CCN(c2cccc3sccc23)CC1` [EX 105, (R)-(4-(benzo[b]thiophen-4-yl)-1-(4-((2-oxo-1,2-dihydroquinolin-7-yl)oxy)butyl)piperazin-1-ium-1-yl)methyl (1-isopropoxy-1-oxopropan-2-yl) phosphate], the cytotoxicity at 24 h, 300 µM in series [1] is -6%. Moreover, in series [2], the “Concentration of brexpiprazole formed” value was determined as 0.00 µM and the “Concentration of evaluation compound decreased” value came to 0.05 µM.

For `CCOCCOP(=O)([O-])OC[N+]1(CCCCOc2ccc3ccc(=O)[nH]c3c2)CCN(c2cccc3sccc23)CC1` [EX 94, (4-(benzo[b]thiophen-4-yl)-1-(4-((2-oxo-1,2-dihydroquinolin-7-yl)oxy)butyl)piperazine-1-ium-1-yl)methyl (2-ethoxyethyl) phosphate], in series [1], the cytotoxicity at 24 h, 300 µM is -8%. In addition, in series [2], the “Concentration of brexpiprazole formed” value was found to be 0.00 µM and the “Concentration of evaluation compound decreased” value was -0.07 µM.
